Assay results: ChEMBL document CHEMBL4052639, “2-Isocyano glucose used in Ugi four-component reaction: An approach to enhance inhibitory effect against DNA oxidation” (Eur J Med Chem, 2017)
Activity calls are given as the source filed them. The calls are words filed in the database; no cut-off is given here.

Tests used:
Assay type in all cases: functional
[1] = Antioxidant activity assessed as reduction in AAPH-induced DNA oxidation up to 400 uM measured every 2 hrs by TBARS assay
[2] = Antioxidant activity assessed as reduction in hydroxyl radical-induced DNA oxidation by measuring TBARS level at 400 uM after 90 mins relative to control; parameters: scale not given: the % may be the effect or the level left
[3] = Antioxidant activity assessed as reduction in Cu2+/GSH-induced DNA oxidation by measuring TBARS level at 400 uM after 90 mins relative to control; parameters: scale not given: the % may be the effect or the level left

| SMILES | Activity [1] | Activity [2] [%] | Activity [3] [%] |
| --- | --- | --- | --- |
| O=C(O)c1ccc(O)cc1 | Active | – | – |
| COc1cc(/C=C/C(=O)O)ccc1O | Active | – | – |
| O=C(CN(C(=O)c1cc(O)c(O)c(O)c1)c1ccccc1)NC1CCCCC1 | Active | 97.1 | 97.1 |
| COc1cc(/C=C/C(=O)N(CC(=O)N[C@@H]2[C@@H](O)[C@H](O)[C@@H](CO)O[C@H]2O)Cc2ccccc2)ccc1O | Active | 94.7 | 92.8 |
| O=C(CN(C(=O)c1ccccc1)c1ccc(O)cc1)N[C@@H]1[C@@H](O)[C@H](O)[C@@H](CO)O[C@H]1O | Active | 98.3 | 96.7 |
| O=C(CN(C(=O)c1cc(O)c(O)c(O)c1)c1ccccc1)N[C@@H]1[C@@H](O)[C@H](O)[C@@H](CO)O[C@H]1O | Active | 92.7 | 90.1 |
| O=C(O)c1cc(O)c(O)c(O)c1 | Active | – | – |
| O=C(CN(C(=O)c1ccccc1)c1ccccc1)N[C@@H]1[C@@H](O)[C@H](O)[C@@H](CO)O[C@H]1O | inactive | 100 | 99.3 |
| O=C(CN(C(=O)c1ccc(O)cc1)c1ccccc1)N[C@@H]1[C@@H](O)[C@H](O)[C@@H](CO)O[C@H]1O | Active | 96.5 | 97.8 |
| O=C(CN(C(=O)c1cc(O)c(O)c(O)c1)c1ccccc1)NCCc1c[nH]c2ccccc12 | Active | 93.8 | 96.2 |
| O=C(CN(C(=O)c1cc(O)c(O)c(O)c1)c1ccccc1)NC12CC3CC(CC(C3)C1)C2 | Active | 95.6 | 93.6 |
| O=C(CN(Cc1ccccc1)C(=O)/C=C/c1ccc(O)c(O)c1)N[C@@H]1[C@@H](O)[C@H](O)[C@@H](CO)O[C@H]1O | Active | 93.7 | 94.6 |
| O=C(CN(C(=O)c1ccc(O)cc1)c1ccc(O)cc1)N[C@@H]1[C@@H](O)[C@H](O)[C@@H](CO)O[C@H]1O | Active | 94.9 | 95 |
| O=C(O)/C=C/c1ccc(O)c(O)c1 | Active | – | – |
| O=C(CN(C(=O)c1cc(O)c(O)c(O)c1)c1ccc(O)cc1)N[C@@H]1[C@@H](O)[C@H](O)[C@@H](CO)O[C@H]1O | Active | 91.8 | 91 |
